According to US20240150293A1, “SPIROCYCLOHEXANE DERIVATIVES, PHARMACEUTICAL COMPOSITIONS CONTAINING THEM AND THEIR USES AS ANTI-APOPTOTIC INHIBITORS” (LES LABORATOIRES SERVIER, priority 2021, published 2024):
Where two headings read alike, the source gives them in different places.

Experiments:
[1] = tested on: H929 multiple myeloma tumor line; experiment: In vitro cytotoxicity, MTT assay (Example B, Method A); type: cell-based; details: H929 cells, 48 hours exposure, read-out: C50
Protocol: The cytotoxicity studies were carried out on the H929 multiple myeloma tumor line.
The cells are distributed onto microplates and exposed to the test compounds for 48 hours. The cell viability is then quantified by a colorimetric assay, the Microculture Tetrazolium Assay (Carmichael et al, Cancer Res. 1987, 47, 939-942).
The results are expressed in C50 which means concentration corresponding to […] of effect/inhibition.

[2] = target: Cy5-labelled Mcl1 (amino acids 171-321) C286S protein (UniProtKB Q07820) (Homo sapiens (Human), UniProt Q07820, C286S); experiment: Inhibition of Mcl-1 by the fluorescence quenching assay (Example A, Method B); type: binding
Chain of Cy5-labelled Mcl1 (amino acids 171-321) C286S protein (Q07820 171-321 C286S): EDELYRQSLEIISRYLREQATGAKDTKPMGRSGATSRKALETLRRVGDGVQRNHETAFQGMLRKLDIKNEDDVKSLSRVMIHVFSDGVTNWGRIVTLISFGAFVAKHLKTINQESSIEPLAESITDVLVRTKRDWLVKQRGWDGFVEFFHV
Method in brief: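 Cy5-labelled Mcl1 171-321 C286S (1 nM) quenched by TQ5WS-labelled PUMA peptide (10, 20 or 400 nM); displacement raises fluorescence (Ex 620/Em 680 nm). Buffer 10 mM HEPES, 150 mM NaCl, 0.05% Tween 20, pH 7.4, 5% DMSO; 2 h at room temperature, 11-point curves, IC50 converted to Ki (cKi/eKi).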

Row | SMILES | Ki [2] [nM] | IC50 ([1]; Homo sapiens, NCI-H929, 48 h) [nM] | IC50 [1] [nM]
1 | C[C@@H](COc1ccnc2c1C(F)(F)CCC2)C[C@H]1Cc2ccccc2[C@]12CC[C@@](Nc1cccc(Cl)c1)(C(=O)O)CC2 [Example 693, (1r,2′S,4S)-4-(3-chloroanilino)-2′-{(2R)-3-[(5,5-difluoro-5,6,7,8-tetrahydroquinolin-4-yl)oxy]-2-methylpropyl}-2′,3′-dihydrospiro[cyclohexane-1,1′-indene]-4-carboxylic acid] | 3.7 | 527 | –
2 | CC(=O)c1cc(C)c2c(c1)[C@]1(CC[C@@](Nc3cccc(Cl)c3)(C(=O)O)CC1)C(C[C@@H](C)COc1ccnc3c1[C@H](C)CCC3)=C2 [Example 756, (1r,4R)-6′-acetyl-4-(3-chloroanilino)-4′-methyl-2′-[(2R)-2-methyl-3-{[(5R)-5-methyl-5,6,7,8-tetrahydroquinolin-4-yl]oxy}propyl]spiro[cyclohexane-1,1′-indene]-4-carboxylic acid] | 1.01 | 62 | –
3 | O=C(O)[C@]1(Nc2cccc(Cl)c2)CC[C@@]2(CC1)c1ccccc1C[C@@H]2C[C@H](COc1ccncc1)c1ccccc1 [Example 555, (1r,2′S,4S)-4-(3-chloroanilino)-2′-{(2S)-2-phenyl-3-[(pyridin-4-yl)oxy]propyl}-2′,3′-dihydrospiro[cyclohexane-1,1′-indene]-4-carboxylic acid] | 14.6 | 2860 | –
4 | C[C@H]1Cc2nccc(OC[C@H](C)C[C@H]3Cc4ccccc4[C@]34CC[C@@](Nc3cccc(Cl)c3)(C(=O)O)CC4)c2[C@H](C)C1 [Example 667, (1r,2′S,4S)-4-(3-chloroanilino)-2′-[(2R)-3-{[(5R,7R)-5,7-dimethyl-5,6,7,8-tetrahydroquinolin-4-yl]oxy}-2-methylpropyl]-2′,3′-dihydrospiro[cyclohexane-1,1′-indene]-4-carboxylic acid] | 4.05 | 574 | –
5 | CC[C@H]1CCc2nccc(OC[C@H](C)C[C@H]3Cc4ccccc4[C@]34CC[C@@](Nc3cccc(Cl)c3)(C(=O)O)CC4)c21 [Example 613, (1r,2′S,4S)-4-(3-chloroanilino)-2′-[(2R)-3-{[(5S)-5-ethyl-6,7-dihydro-5H-cyclopenta[b]pyridin-4-yl]oxy}-2-methylpropyl]-2′,3′-dihydrospiro[cyclohexane-1,1′-indene]-4-carboxylic acid] | 18.9 | 2360 | –
6 | C[C@@H](COc1ccnc2c1[C@H](C)CCC2)C[C@H]1Cc2ccccc2[C@]12CC[C@@](Nc1ccnc(Cl)c1)(C(=O)O)CC2 [Example 714, (1r,2′S,4S)-4-[(2-chloropyridin-4-yl)amino]-2′-[(2R)-2-methyl-3-{[(5R)-5-methyl-5,6,7,8-tetrahydroquinolin-4-yl]oxy}propyl]-2′,3′-dihydrospiro[cyclohexane-1,1′-indene]-4-carboxylic acid] | 4.75 | 1260 | –
7 | CC(=O)c1cc2c(cc1F)C=C(C[C@@H](C)COc1ccnc3c1[C@@H](C)CCC3)[C@]21CC[C@](Nc2cccc(Cl)c2)(C(=O)O)CC1 [Example 873, (1r,4R)-6′-acetyl-4-(3-chloroanilino)-5′-fluoro-2′-[(2R)-2-methyl-3-{[(5S)-5-methyl-5,6,7,8-tetrahydroquinolin-4-yl]oxy}propyl]spiro[cyclohexane-1,1′-indene]-4-carboxylic acid] | 4.17 | 341 | –
8 | C[C@@H](COc1ccnc2c1CCC2)C[C@H]1Cc2ccccc2[C@]12CC[C@@](Nc1cccc(Cl)c1)(C(=O)O)CC2 [Example 599, (1r,2′S,4S)-4-(3-chloroanilino)-2′-{(2R)-3-[(6,7-dihydro-5H-cyclopenta[b]pyridin-4-yl)oxy]-2-methylpropyl}-2′,3′-dihydrospiro[cyclohexane-1,1′-indene]-4-carboxylic acid] | 1.05 | 237 | –
9 | CC(C)(COc1ccnc2sccc12)CC1Cc2ccccc2C12CCC(Nc1cccc(Cl)c1)(C(=O)O)CC2 (single isomer, unassigned) [Example 623, (1r,4r)-4-(3-chloroanilino)-2′-{2,2-dimethyl-3-[(thieno[2,3-b]pyridin-4-yl)oxy]propyl}-2′,3′-dihydrospiro[cyclohexane-1,1′-indene]-4-carboxylic acid] | 2320 | – | 30000
10 | O=C(O)[C@]1(Nc2cccc(Cl)c2)CC[C@@]2(CC1)c1ccccc1CC2CC(COc1ccccc1)COc1ccnc2ccsc12 (stereo partly drawn) [Example 501, (1r,4r)-4-(3-chloroanilino)-2′-{2-(phenoxymethyl)-3-[(thieno[3,2-b]pyridin-7-yl)oxy]propyl}-2′,3′-dihydrospiro[cyclohexane-1,1′-indene]-4-carboxylic acid] | 4.8 | 431 | –
11 | C[C@@H](COc1ccnc2c1[C@@H](C)CC[C@@H]2O)C[C@H]1Cc2ccccc2[C@]12CC[C@@](Nc1cccc(Cl)c1)(C(=O)O)CC2 [Example 675, (1r,2′S,4S)-4-(3-chloroanilino)-2′-[(2R)-3-{[(5S,8S)-8-hydroxy-5-methyl-5,6,7,8-tetrahydroquinolin-4-yl]oxy}-2-methylpropyl]-2′,3′-dihydrospiro[cyclohexane-1,1′-indene]-4-carboxylic acid] | 29.9 | 6980 | –
12 | C[C@@H](COc1ccnc2c1[C@H](C)CCC2)C[C@H]1Cc2ccc(Oc3ccccc3)cc2[C@]12CC[C@@](Nc1cccc(Cl)c1)(C(=O)O)CC2 [Example 793, (1r,2′S,4S)-4-(3-chloroanilino)-2′-[(2R)-2-methyl-3-{[(5S)-5-methyl-5,6,7,8-tetrahydroquinolin-4-yl]oxy}propyl]-6′-phenoxy-2′,3′-dihydrospiro[cyclohexane-1,1′-indene]-4-carboxylic acid] | 17.9 | 857 | –
13 | CC[C@@H]1CC[C@@H](O)c2nccc(OC[C@H](C)C[C@H]3Cc4ccccc4[C@]34CC[C@@](Nc3cccc(Cl)c3)(C(=O)O)CC4)c21 [Example 679, (1r,2′S,4S)-4-(3-chloroanilino)-2′-[(2R)-3-{[(5R,8R)-5-ethyl-8-hydroxy-5,6,7,8-tetrahydroquinolin-4-yl]oxy}-2-methylpropyl]-2′,3′-dihydrospiro[cyclohexane-1,1′-indene]-4-carboxylic acid] | 2.32 | 199 | –
14 | O=C(O)[C@]1(Nc2cccc(Cl)c2)CC[C@]2(CC1)C(CC(F)COc1ccnc3c1CCCC3)=Cc1ccccc12 (single isomer, unassigned) [Example 506, (1r,4r)-4-(3-chloroanilino)-2′-{2-fluoro-3-[(5,6,7,8-tetrahydroquinolin-4-yl)oxy]propyl}spiro[cyclohexane-1,1′-indene]-4-carboxylic acid] | 49.2 | – | 2790

Continued, in another order:

Row | Ki [2] [nM] | SMILES | IC50 ([1]; Homo sapiens, NCI-H929, 48 h) [nM] | IC50 [1] [nM]
15 | 2.44 | CO[C@@H]1CCCc2nccc(OC[C@H](C)C[C@H]3Cc4ccccc4[C@]34CC[C@@](Nc3cccc(Cl)c3)(C(=O)O)CC4)c21 [Example 672, (1r,2′S,4S)-4-(3-chloroanilino)-2′-[(2R)-3-{[(5R)-5-methoxy-5,6,7,8-tetrahydroquinolin-4-yl]oxy}-2-methylpropyl]-2′,3′-dihydrospiro[cyclohexane-1,1′-indene]-4-carboxylic acid] | 391 | –
16 | 1.52 | C[C@@H](COc1ccnc2c1[C@H](C)CCC2)C[C@@H]1Cc2cc(F)ccc2[C@]12CC[C@@](Nc1cccc(Cl)c1)(C(=O)O)CC2 [Example 769, (1r,2′R,4R)-4-(3-chloroanilino)-5′-fluoro-2′-[(2R)-2-methyl-3-{[(5R)-5-methyl-5,6,7,8-tetrahydroquinolin-4-yl]oxy}propyl]-2′,3′-dihydrospiro[cyclohexane-1,1′-indene]-4-carboxylic acid] | 125 | –
17 | 5.3 | C[C@@H]1CCCc2nccc(OCC(F)CC3Cc4ccccc4[C@]34CC[C@@](Nc3cccc(Cl)c3)(C(=O)O)CC4)c21 (single isomer, unassigned) [Example 509] | – | 999
18 | 1.49 | C[C@@H](COc1ccnc2c1[C@H](C)CCC2)C[C@H]1Cc2ccccc2[C@]12CC[C@@](Nc1cc(F)cc(Cl)c1)(C(=O)O)CC2 [Example 704, (1r,2′S,4S)-4-(3-chloro-5-fluoroanilino)-2′-[(2R)-2-methyl-3-{[(5R)-5-methyl-5,6,7,8-tetrahydroquinolin-4-yl]oxy}propyl]-2′,3′-dihydrospiro[cyclohexane-1,1′-indene]-4-carboxylic acid] | 240 | –
19 | 62.9 | CC[C@H]1CCCc2nccc(OC[C@H](C)C[C@H]3Cc4ccccc4[C@]34CC[C@@](Nc3cccc(Cl)c3)(C(=O)O)CC4)c21 [Example 656, (1r,2′S,4S)-4-(3-chloroanilino)-2′-[(2R)-3-{[(5S)-5-ethyl-5,6,7,8-tetrahydroquinolin-4-yl]oxy}-2-methylpropyl]-2′,3′-dihydrospiro[cyclohexane-1,1′-indene]-4-carboxylic acid] | 2910 | –
20 | 0.463 | C[C@@H](COc1ccnc2c1[C@H](C)CCC2)CC1Cc2c(F)cccc2[C@]12CC[C@@](Nc1cccc(Cl)c1)(C(=O)O)CC2 (single isomer, unassigned) [Example 743] | – | 110
21 | 0.423 | C[C@@H](COc1ccnc2c1[C@H](C)CCC2)C[C@@H]1Cc2cc(Cl)ccc2[C@]12CC[C@@](Nc1cccc(Cl)c1)(C(=O)O)CC2 [Example 779, (1r,2′R,4R)-5′-chloro-4-(3-chloroanilino)-2′-[(2R)-2-methyl-3-{[(5R)-5-methyl-5,6,7,8-tetrahydroquinolin-4-yl]oxy}propyl]-2′,3′-dihydrospiro[cyclohexane-1,1′-indene]-4-carboxylic acid] | 143 | –
